Here are results for 1 compound from ChEMBL document CHEMBL1151055, “A comparative SAR and computer modeling study of benzisothiazolone, mechanism-based inhibitors with porcine pancreatic and human leukocyte elastase” (Bioorg Med Chem Lett, 1996).

Assay [1] has as its target T1, Neutrophil elastase (Homo sapiens) (UniProt P08246).
T1 sequence (whole entry): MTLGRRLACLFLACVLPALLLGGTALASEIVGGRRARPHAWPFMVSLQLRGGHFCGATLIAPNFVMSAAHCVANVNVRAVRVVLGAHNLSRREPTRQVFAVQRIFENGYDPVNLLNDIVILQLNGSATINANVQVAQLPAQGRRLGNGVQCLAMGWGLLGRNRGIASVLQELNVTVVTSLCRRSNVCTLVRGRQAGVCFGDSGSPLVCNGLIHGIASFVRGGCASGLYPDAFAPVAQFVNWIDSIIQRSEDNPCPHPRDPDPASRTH
Nature of the assay: Irreversible inhibitory activity against human leukocyte elastase.

In assay [2] the target is T2, Chymotrypsin-like elastase family member 2A (Sus scrofa) (UniProt P08419).
T2 sequence (whole entry): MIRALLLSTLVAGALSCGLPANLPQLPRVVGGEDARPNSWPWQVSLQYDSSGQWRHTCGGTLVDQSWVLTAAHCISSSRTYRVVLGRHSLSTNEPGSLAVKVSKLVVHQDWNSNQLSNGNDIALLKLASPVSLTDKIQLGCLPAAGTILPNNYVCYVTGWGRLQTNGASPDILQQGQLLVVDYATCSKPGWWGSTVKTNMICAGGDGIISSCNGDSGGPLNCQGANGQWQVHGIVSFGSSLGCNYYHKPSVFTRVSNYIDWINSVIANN
Nature of the assay: Irreversible inhibitory activity against porcine pancreatic elastase.

Molecules are shown by their SMILES.

In the case of `COC(=O)CCC(=O)N[C@@H](C)C(=O)N[C@@H](C)C(=O)N1CCC[C@@H]1C(=O)N[C@H](C(=O)CCl)C(C)C`, the k on came to 3150 M⁻¹ s⁻¹ in assay [1] and 830 M⁻¹ s⁻¹ in assay [2].
